{"source": "patent US20130217132A1", "about": "“METHODS, COMPOSITIONS AND USE FOR ENHANCING CHEMICAL TOLERANCE BY MICROORGANISMS” (priority 2009, published 2013)", "key": {"BW25113 ArecA pLPCA": {"test_system": "BW25113 ArecA pLPCA", "test": "MIC assay of furfural, lpcA overexpression strain", "type": "cell-based, E. coli", "details": "Escherichia coli", "experimental": "(§1) In one exemplary method, assays were performed to determine minimum inhibitory concentration (MIC) of ethanol, furfural and acetate for BW25113 and MG1655 E. coli strains. […] Cells from each strain were inoculated from the same optical density into a total of 100 μL of varying furfural concentrations in a minimal media, for example using MOPS. Cell growth in the first 24 hr or 48 hr in the presence of furfural was monitored. The left bar in each pair for each indicated strain represents a first concentration of furfural that inhibited bacterial growth after 24 hr. The right bar for each strain represents the first concentration that inhibited growth after 48 hr. The MIC reads were the average of triplicates (n=3), and error bars represent standard deviation. […] ArecA signifies strains where the gene has been knocked out as previously described.\n(§2) The minimum inhibitory concentration (MIC) of furfural of MG1655 and BW25113 with or without lpcA overexpression was determined. MIC assays were performed as described in Example 13. […] MIC reads were average of triplicates (n=3), and error bars represent standard deviation. The SDS-PAGE gel image in FIG. 17C represents LPS level of the cells indicated above the gel image (duplicate of each cell sample was presented). LPS was extracted from the indicated cells grown to exponential phase. Loading of LPS the SDS-PAGE gel was normalized to the cell number. The gel was stained for visualization after desired separation of LPS was obtained.\nIn another exemplary method, MIC was determined when MG1655 and BW25113 strains were fed with various carbon sources. MIC assays were performed in the presence of furfural. Glucose, Xylose or Ribose was supplemented with a minimal media for cell growth. […] MICs were read at the indicated time (24 hr or 48 hr), the average of triplicates was presented and error bars represent standard deviation. ‘Blank vector’ refers to the pBTL-1 vector, which served as the control. […]"}, "[1]": {"test_system": "BW25113 araC::FRT-kan clone with overexpression of lpcA gene", "test": "Cell growth (OD600) in MOPS minimal media with furfural, araC deletion plus lpcA overexpression", "type": "cell-based, E. coli", "details": "furfural 1 g/L, araC deletion and lpcA overexpression", "experimental": "In other exemplary methods, tolerance and expression of LPS was restored in a microorganism. FIG. 19 represents an example of restoration of tolerance and LPS expression in BW25113 ArecA clone. The indicated cells were grown in MOPS minimal media supplemented with glucose as a carbon source. Furfural was added to the media at the concentration of 1 g/L. Arabinose was added at 10 mM where indicated to gauge effect of AraC binding. The BW25113 araC::FRT-kan clone corresponds to JW0063, a BW25113 araC knockout mutant ordered from the Keio Collection directly. pBTL-1 represented the blank vector, and pLPCA referred to lpcA gene overexpression. Consistent with the Examples above, overexpression of lpcA gene increased cell growth (OD600 of 0.1 vs. 0.05) in the presence of furfural. Addition of Arabinose to the lpcA gene overexpression cells could further enhance the effect (OD600 of 0.3). […] To analyze the LPS level in the cells indicated in FIG. 19, LPS are extracted from the cells grown to exponential phase. Loading of LPS for the protein gel is normalized to the cell number. The gel is stained to visualize LPS protein bands after desired separation is obtained.\nBW25113, MG1655, and derivatives were used where indicated. JW0063, an araC mutant of BW25113 was obtained from the Coli Genetic Stock Center (Yale). Overnight bacterial cultures were grown in Luria-Bertani medium with shaking. […]"}, "[2]": {"test_system": "BW25113 ArecA cells overexpressing lpcA gene (pLPCA)", "type": "cell-based, E. coli", "details": "for OD600 (cell growth in the presence of furfural): furfural 1 g/L, lpcA overexpression, FIG. 19", "experimental": "(§3) FIGS. 17A-17B represent methods of identification of a gene related to restoring tolerance. Multiple genome-wide SCALE selection was performed in the presence of ethanol, furfural and acetate respectively. The data set obtained for each compound was compared to the others. Alleles enriched in all cases were identified. […] To restore tolerance, overexpression of identified genes in bacterial cells was performed. For example, lpcA ORF was cloned into the pBTL-1 vector. BW25113 ArecA cells transformed with the blank pBTL-1 vector were used as a control. BW25113 ArecA cells overexpressing lpcA gene were referred to as pLPCA. Cells were inoculated at a standard cell density into MOPS minimal media, supplemented with furfural, acetate or ethanol. After 24 hours, growth of the cells was analyzed.\n(§4) The indicated cells were grown in MOPS minimal media supplemented with glucose as a carbon source. Furfural was added to the media at the concentration of 1 g/L. Arabinose was added at 10 mM where indicated to gauge effect of AraC binding. The BW25113 araC::FRT-kan clone corresponds to JW0063, a BW25113 araC knockout mutant ordered from the Keio Collection directly. pBTL-1 represented the blank vector, and pLPCA referred to lpcA gene overexpression. […] To analyze the LPS level in the cells indicated in FIG. 19, LPS are extracted from the cells grown to exponential phase. Loading of LPS for the protein gel is normalized to the cell number. The gel is stained to visualize LPS protein bands after desired separation is obtained.\n(§5) BW25113, MG1655, and derivatives were used where indicated. JW0063, an araC mutant of BW25113 was obtained from the Coli Genetic Stock Center (Yale). Overnight bacterial cultures were grown in Luria-Bertani medium with shaking. MOPS minimal medium (previously presented) with 0.2% glucose as a carbon source, was used for all seed cultures and growth studies. Seed cultures were inoculated at 2 v/v % from an overnight culture and were grown to mid-exponential phase. Growth cultures were inoculated with 10 v/v % seed cultures of an OD600 of 0.195-0.200 for an initial optical density of ˜0.02. Carbenicillin and kanamycin were used where appropriate at 100 μg/ml and 30 μg/ml, respectively. The pBTL-1 vector (previously described) was used as the control blank vector for all growth studies. Genome-wide furfural selection"}, "[3]": {"test_system": "BW25113 ArecA cells transformed with the blank pBTL-1 vector", "type": "cell-based, E. coli", "experimental": "as §3, §4, §5"}, "MG1655 E. coli strain": {"test_system": "MG1655 E. coli strain", "test": "Minimum inhibitory concentration (MIC) assay of furfural in MOPS minimal media", "type": "cell-based", "details": "Escherichia coli", "experimental": "as §1, §2"}, "E. coli LYO1": {"test_system": "E. coli LYO1", "details": "cited from earlier work"}, "[4]": {"details": "furfural vs. furfuryl alcohol; cited from earlier work"}}, "note": "Like-named read-outs stand apart in the source and are kept apart here.", "data": [{"smiles": "O=Cc1ccco1", "note": "[furfural, furan-2-carbaldehyde]", "values": [{"measurement": "MIC", "setting": "BW25113 ArecA pLPCA; BW25113, read-out: MIC of furfural, BW25113 ArecA pLPCA, FIG. 17C", "result": 1250, "unit": "µg/mL"}, {"measurement": "MIC", "setting": "BW25113 ArecA pLPCA; BW25113, read-out: MIC of furfural, pLPCA, glucose as carbon source, FIG. 18B", "result": 1250, "unit": "µg/mL"}, {"measurement": "MIC", "setting": "BW25113 ArecA pLPCA; BW25113, read-out: MIC of furfural, pLPCA, xylose as carbon source, FIG. 18B", "result": 1000, "unit": "µg/mL"}, {"measurement": "OD600 (cell growth in the presence of furfural)", "setting": "[1]; absence of Arabinose", "result": 0.5}, {"measurement": "OD600 (cell growth in the presence of furfural)", "setting": "[1]; presence of Arabinose", "result": 1.0}, {"measurement": "OD600 (cell growth in the presence of furfural)", "setting": "[2]; Arabinose 10 mM", "result": 0.3}, {"measurement": "OD600 (cell growth in the presence of furfural)", "setting": "[2]; no Arabinose", "result": 0.1}, {"measurement": "improvement of final optical density by pLPCA in BW25113", "setting": "[2]; furfural 1 g/l", "result": "252±8", "unit": "%"}, {"measurement": "OD600 at 24 hr", "setting": "[2]; pLPCA cells, 1 g/L of furfural", "result": "about 1.2"}, {"measurement": "OD600 at 24 hr", "setting": "[3]; control cells, 1 g/L of furfural", "result": "about 0.2"}, {"measurement": "OD600 (cell growth in the presence of furfural)", "setting": "[3]; furfural 1 g/L, blank vector pBTL-1, no Arabinose, FIG. 19", "result": 0.05}, {"measurement": "MIC", "setting": "MG1655 E. coli strain; MG1655, read-out: MIC of furfural", "result": 1250, "unit": "µg/mL"}, {"measurement": "MIC", "setting": "MG1655 E. coli strain; MG1655, after 24 hr, n=3, read-out: MIC (first concentration of furfural that inhibited bacterial growth)", "result": 1200, "unit": "µg/mL"}, {"measurement": "MIC", "setting": "MG1655 E. coli strain; MG1655, after 48 hr, n=3, read-out: MIC (first concentration of furfural that inhibited bacterial growth)", "result": 1800, "unit": "µg/mL"}, {"measurement": "ethanol production", "setting": "E. coli LYO1", "result": "inhibited"}, {"measurement": "toxicity on a concentration basis", "setting": "[4]", "result": "~2", "unit": "g/L"}]}]}
